Source: the kinase profiling compilation of Christmann-Franck et al. (2016)

Key:
Assay in all cases: radiometric filter-binding kinase assay, Kinase HotSpot
Conditions in all cases: compound 0.5 µM; ATP 10 µM
CDK9 CCNT1 (human) = CDK9 CCNT1 (human) (UniProt P50750+O60563)
PRKCI (human) = PRKCI (human) (UniProt P41743)
SRPK3 (human) = SRPK3 (human) (UniProt Q9UPE1)
CDK1 CCNB1 (human) = CDK1 CCNB1 (human) (UniProt P06493+P14635)
SIK2 (human) = SIK2 (human) (UniProt Q9H0K1)
CDC42BPA (human) = CDC42BPA (human) (UniProt Q5VT25)
CAMK1 (human) = CAMK1 (human) (UniProt Q14012)
TGFBR2 (human) = TGFBR2 (human) (UniProt P37173)
STK33 (human) = STK33 (human) (UniProt Q9BYT3)
INSR (human) = INSR (human) (UniProt P06213)
MAP3K14 (human) = MAP3K14 (human) (UniProt Q99558)
EPHA5 (human) = EPHA5 (human) (UniProt P54756)
CDK6 CCND3 (human) = CDK6 CCND3 (human) (UniProt P30281+Q00534)
GRK5 (human) = GRK5 (human) (UniProt P34947)
CSNK1G3 (human) = CSNK1G3 (human) (UniProt Q9Y6M4)
CAMK1D (human) = CAMK1D (human) (UniProt Q8IU85)
BRSK2 (human) = BRSK2 (human) (UniProt Q8IWQ3)
CDK1 CCNA2 (human) = CDK1 CCNA2 (human) (UniProt P06493+P20248)
MATK (human) = MATK (human) (UniProt P42679)
FGFR2 (human) = FGFR2 (human) (UniProt P21802)
ADRBK1 (human) = ADRBK1 (human) (UniProt P25098)
CSNK1G2 (human) = CSNK1G2 (human) (UniProt P78368)
PLK1 (human) = PLK1 (human) (UniProt P53350)
STK17A (human) = STK17A (human) (UniProt Q9UEE5)
BTK (human) = BTK (human) (UniProt Q06187)
SYK (human) = SYK (human) (UniProt P43405)
PAK3 (human) = PAK3 (human) (UniProt O75914)
HIPK3 (human) = HIPK3 (human) (UniProt Q9H422)
TAOK1 (human) = TAOK1 (human) (UniProt Q7L7X3)
TBK1 (human) = TBK1 (human) (UniProt Q9UHD2)
CDK4 CCND3 (human) = CDK4 CCND3 (human) (UniProt P30281+P11802)
PLK3 (human) = PLK3 (human) (UniProt Q9H4B4)
[1] = system: PRKCQ (human), Q04759 [P330L]
PKN1 (human) = PKN1 (human) (UniProt Q16512)
NTRK2 (human) = NTRK2 (human) (UniProt Q16620)
SLK (human) = SLK (human) (UniProt Q9H2G2)
TYRO3 (human) = TYRO3 (human) (UniProt Q06418)
PRKX (human) = PRKX (human) (UniProt P51817)
IGF1R (human) = IGF1R (human) (UniProt P08069)
RPS6KA5 KD2 (human) = RPS6KA5 KD2 (human) (UniProt O75582)
HCK (human) = HCK (human) (UniProt P08631)

Chain of CSNK1G3 (human) (Q9Y6M4 whole entry, looked up): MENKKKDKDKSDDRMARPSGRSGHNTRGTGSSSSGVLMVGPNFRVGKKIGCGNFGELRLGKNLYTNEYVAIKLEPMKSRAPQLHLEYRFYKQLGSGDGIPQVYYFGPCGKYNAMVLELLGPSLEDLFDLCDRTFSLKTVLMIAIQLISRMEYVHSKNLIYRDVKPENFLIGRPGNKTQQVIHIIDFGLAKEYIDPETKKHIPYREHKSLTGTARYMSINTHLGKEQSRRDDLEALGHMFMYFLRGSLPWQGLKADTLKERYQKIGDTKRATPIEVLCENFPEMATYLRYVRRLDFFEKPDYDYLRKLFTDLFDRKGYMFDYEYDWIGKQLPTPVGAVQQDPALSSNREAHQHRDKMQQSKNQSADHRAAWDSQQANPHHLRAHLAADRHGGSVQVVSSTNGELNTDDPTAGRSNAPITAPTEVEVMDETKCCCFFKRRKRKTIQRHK
Chain of CDK6 CCND3 (human) (P30281 whole entry, looked up): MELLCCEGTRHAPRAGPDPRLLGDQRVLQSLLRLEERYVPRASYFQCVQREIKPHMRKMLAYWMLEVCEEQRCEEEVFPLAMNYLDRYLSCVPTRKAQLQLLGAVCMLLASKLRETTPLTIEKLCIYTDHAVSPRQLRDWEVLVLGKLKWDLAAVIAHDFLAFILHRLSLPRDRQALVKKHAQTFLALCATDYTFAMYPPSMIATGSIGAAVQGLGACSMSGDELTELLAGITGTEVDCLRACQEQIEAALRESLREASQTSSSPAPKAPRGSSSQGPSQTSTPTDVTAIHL
Chain of CDK6 CCND3 (human) (Q00534 whole entry, looked up): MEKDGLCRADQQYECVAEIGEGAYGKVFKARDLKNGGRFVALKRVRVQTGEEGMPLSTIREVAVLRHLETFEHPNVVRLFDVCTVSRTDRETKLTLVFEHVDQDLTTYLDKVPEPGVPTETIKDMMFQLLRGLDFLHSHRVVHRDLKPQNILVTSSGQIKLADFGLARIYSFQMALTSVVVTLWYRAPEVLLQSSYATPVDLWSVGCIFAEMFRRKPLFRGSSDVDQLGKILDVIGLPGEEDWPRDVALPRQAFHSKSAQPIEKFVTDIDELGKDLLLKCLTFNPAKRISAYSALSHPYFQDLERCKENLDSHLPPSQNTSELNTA
Chain of IGF1R (human) (P08069 whole entry, looked up): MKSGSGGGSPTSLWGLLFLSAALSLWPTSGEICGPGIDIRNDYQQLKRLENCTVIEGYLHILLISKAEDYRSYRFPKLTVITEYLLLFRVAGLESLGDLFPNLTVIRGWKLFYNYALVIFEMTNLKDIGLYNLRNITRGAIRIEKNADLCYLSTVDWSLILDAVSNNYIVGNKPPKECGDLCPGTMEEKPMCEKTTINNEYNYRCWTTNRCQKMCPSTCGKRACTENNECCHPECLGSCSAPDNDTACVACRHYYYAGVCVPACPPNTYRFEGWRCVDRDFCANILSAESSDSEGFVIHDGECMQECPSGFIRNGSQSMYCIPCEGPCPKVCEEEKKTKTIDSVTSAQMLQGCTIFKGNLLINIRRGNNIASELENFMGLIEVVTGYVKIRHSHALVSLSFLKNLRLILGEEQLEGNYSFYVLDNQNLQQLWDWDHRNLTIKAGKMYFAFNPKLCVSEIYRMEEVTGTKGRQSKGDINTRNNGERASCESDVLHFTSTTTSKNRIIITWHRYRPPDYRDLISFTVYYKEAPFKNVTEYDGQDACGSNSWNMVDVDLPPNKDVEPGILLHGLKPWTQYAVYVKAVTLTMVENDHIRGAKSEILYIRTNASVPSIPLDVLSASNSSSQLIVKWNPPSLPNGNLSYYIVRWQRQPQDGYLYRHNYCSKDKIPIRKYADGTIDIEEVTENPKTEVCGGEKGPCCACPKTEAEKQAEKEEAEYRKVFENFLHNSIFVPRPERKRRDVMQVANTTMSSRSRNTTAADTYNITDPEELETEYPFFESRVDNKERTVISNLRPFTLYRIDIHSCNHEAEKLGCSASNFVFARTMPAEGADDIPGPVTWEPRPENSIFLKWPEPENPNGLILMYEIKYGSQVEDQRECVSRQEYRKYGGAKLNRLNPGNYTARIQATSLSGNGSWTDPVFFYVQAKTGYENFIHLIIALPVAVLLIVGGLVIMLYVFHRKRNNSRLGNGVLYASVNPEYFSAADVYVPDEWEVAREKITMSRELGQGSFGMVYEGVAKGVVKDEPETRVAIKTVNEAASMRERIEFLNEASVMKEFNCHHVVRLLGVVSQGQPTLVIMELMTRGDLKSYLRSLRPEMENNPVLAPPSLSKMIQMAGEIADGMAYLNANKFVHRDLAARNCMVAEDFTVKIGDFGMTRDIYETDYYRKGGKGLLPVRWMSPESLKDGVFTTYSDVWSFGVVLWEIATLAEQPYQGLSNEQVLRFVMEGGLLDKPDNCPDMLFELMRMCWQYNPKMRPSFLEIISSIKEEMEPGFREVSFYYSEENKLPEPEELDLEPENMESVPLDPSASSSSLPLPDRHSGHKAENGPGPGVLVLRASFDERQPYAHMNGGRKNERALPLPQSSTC
Chain of CDK1 CCNB1 (human) (P06493 whole entry, looked up): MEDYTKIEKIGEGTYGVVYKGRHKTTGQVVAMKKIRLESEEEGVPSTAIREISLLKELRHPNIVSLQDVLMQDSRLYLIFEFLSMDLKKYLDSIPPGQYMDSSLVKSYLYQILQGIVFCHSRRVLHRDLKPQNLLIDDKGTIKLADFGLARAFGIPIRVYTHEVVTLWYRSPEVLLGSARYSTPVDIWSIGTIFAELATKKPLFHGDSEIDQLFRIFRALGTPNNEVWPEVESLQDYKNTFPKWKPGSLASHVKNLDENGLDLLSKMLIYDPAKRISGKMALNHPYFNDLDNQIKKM
Chain of CDK1 CCNB1 (human) (P14635 whole entry, looked up): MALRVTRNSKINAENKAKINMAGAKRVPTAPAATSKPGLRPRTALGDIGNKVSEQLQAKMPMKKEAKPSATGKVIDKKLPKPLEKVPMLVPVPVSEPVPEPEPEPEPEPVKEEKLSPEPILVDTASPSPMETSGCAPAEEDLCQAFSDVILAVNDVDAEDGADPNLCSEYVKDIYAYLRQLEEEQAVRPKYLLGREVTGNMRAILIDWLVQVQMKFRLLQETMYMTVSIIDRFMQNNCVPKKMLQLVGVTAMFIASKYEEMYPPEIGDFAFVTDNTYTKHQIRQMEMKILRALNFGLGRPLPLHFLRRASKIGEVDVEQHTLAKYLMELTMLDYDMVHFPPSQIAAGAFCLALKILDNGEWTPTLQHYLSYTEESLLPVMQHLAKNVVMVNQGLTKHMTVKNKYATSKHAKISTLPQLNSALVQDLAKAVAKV
Chain of CDK1 CCNA2 (human) (P06493 whole entry, looked up): as the sequence (P06493 whole entry, looked up) above
Chain of CDK1 CCNA2 (human) (P20248 whole entry, looked up): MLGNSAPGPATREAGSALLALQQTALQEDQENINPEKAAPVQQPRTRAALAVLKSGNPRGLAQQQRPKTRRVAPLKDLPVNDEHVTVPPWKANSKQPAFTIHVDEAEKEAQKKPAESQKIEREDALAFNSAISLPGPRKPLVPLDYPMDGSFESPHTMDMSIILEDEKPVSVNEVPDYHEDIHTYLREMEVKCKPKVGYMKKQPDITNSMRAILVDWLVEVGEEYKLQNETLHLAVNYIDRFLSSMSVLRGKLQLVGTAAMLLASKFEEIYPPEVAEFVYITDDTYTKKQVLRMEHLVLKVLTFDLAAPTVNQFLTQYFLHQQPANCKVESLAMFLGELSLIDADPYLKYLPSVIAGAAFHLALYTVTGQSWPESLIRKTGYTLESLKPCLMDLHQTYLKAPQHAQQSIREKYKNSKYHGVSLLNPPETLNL
Chain of GRK5 (human) (P34947 whole entry, looked up): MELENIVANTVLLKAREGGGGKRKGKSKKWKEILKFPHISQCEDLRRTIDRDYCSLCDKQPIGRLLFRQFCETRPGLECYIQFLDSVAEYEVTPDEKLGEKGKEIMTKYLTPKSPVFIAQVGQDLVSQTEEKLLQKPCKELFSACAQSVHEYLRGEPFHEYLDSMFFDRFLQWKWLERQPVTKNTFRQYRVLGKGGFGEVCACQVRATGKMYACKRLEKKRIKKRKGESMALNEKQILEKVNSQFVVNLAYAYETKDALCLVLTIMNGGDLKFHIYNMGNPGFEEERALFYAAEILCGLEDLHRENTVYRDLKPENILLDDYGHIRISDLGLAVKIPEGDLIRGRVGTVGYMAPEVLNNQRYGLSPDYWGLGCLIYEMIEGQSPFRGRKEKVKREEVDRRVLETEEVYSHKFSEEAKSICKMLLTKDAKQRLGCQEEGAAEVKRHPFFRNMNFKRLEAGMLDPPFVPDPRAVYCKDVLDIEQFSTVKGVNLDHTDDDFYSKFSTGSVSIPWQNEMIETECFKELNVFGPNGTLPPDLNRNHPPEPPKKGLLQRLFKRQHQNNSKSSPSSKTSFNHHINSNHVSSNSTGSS
Chain of CDK4 CCND3 (human) (P11802 whole entry, looked up): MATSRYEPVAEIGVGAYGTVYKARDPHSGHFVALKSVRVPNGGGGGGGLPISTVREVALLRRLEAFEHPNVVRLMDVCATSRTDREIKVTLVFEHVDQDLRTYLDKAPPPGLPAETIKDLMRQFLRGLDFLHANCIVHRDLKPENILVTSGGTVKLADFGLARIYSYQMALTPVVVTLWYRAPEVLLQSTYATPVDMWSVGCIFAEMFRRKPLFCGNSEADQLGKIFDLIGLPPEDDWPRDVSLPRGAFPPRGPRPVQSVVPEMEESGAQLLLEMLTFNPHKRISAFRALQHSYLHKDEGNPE
Chain of CDK4 CCND3 (human) (P30281 whole entry, looked up): as the sequence (P30281 whole entry, looked up) above

O=C1NC(=O)c2c1c1c3ccccc3[nH]c1n1cncc21
residual activity (CDK9 CCNT1 (human)): 82.9% | residual activity (PRKCI (human)): 82.3% | residual activity (SRPK3 (human)): 75.7% | residual activity (CDK1 CCNB1 (human)): 85.5% | residual activity (SIK2 (human)): 91.9% | residual activity (CDC42BPA (human)): 92.7% | residual activity (CAMK1 (human)): 83.3% | residual activity (TGFBR2 (human)): 95.8% | residual activity (STK33 (human)): 52.3% | residual activity (INSR (human)): 17.9% | residual activity (MAP3K14 (human)): 83% | residual activity (EPHA5 (human)): 92% | residual activity (CDK6 CCND3 (human)): 74.3% | residual activity (GRK5 (human)): 94.4% | residual activity (CSNK1G3 (human)): 87% | residual activity (CAMK1D (human)): 91.9% | residual activity (BRSK2 (human)): 29.7% | residual activity (CDK1 CCNA2 (human)): 94.8% | residual activity (MATK (human)): 99.8% | residual activity (FGFR2 (human)): 91.3% | residual activity (ADRBK1 (human)): 107% | residual activity (CSNK1G2 (human)): 63.4% | residual activity (PLK1 (human)): 50.8% | residual activity (STK17A (human)): 36.6% | residual activity (BTK (human)): 83.9% | residual activity (SYK (human)): 84.9% | residual activity (PAK3 (human)): 100% | residual activity (HIPK3 (human)): 66.9% | residual activity (TAOK1 (human)): 135% | residual activity (TBK1 (human)): 81.9% | residual activity (CDK4 CCND3 (human)): 87.1% | residual activity (PLK3 (human)): 48.2% | residual activity [1]: 88.9% | residual activity (PKN1 (human)): 76.4% | residual activity (NTRK2 (human)): 49% | residual activity (SLK (human)): 87.8% | residual activity (TYRO3 (human)): 88.8% | residual activity (PRKX (human)): 87.8% | residual activity (IGF1R (human)): 76.8% | residual activity (RPS6KA5 KD2 (human)): 87.6% | residual activity (HCK (human)): 94.6%

Cn1c2ccccc2c2c3c(c4c5ccccc5n(CCC#N)c4c21)CNC3=O
residual activity (CDK9 CCNT1 (human)): 46.8% | residual activity (PRKCI (human)): 91.6% | residual activity (SRPK3 (human)): 92.8% | residual activity (CDK1 CCNB1 (human)): 38.7% | residual activity (SIK2 (human)): 54.5% | residual activity (CDC42BPA (human)): 89.9% | residual activity (CAMK1 (human)): 94.2% | residual activity (TGFBR2 (human)): 117% | residual activity (STK33 (human)): 26.5% | residual activity (INSR (human)): 89.3% | residual activity (MAP3K14 (human)): 84.1% | residual activity (EPHA5 (human)): 88.2% | residual activity (CDK6 CCND3 (human)): 52.1% | residual activity (GRK5 (human)): 89.1% | residual activity (CSNK1G3 (human)): 137% | residual activity (CAMK1D (human)): 82.4% | residual activity (BRSK2 (human)): 26.3% | residual activity (CDK1 CCNA2 (human)): 55.5% | residual activity (MATK (human)): 100% | residual activity (FGFR2 (human)): 79.8% | residual activity (ADRBK1 (human)): 103% | residual activity (CSNK1G2 (human)): 105% | residual activity (PLK1 (human)): 103% | residual activity (STK17A (human)): 85.3% | residual activity (BTK (human)): 22% | residual activity (SYK (human)): 14.6% | residual activity (PAK3 (human)): 122% | residual activity (HIPK3 (human)): 29.8% | residual activity (TAOK1 (human)): 43.9% | residual activity (TBK1 (human)): 72.1% | residual activity (CDK4 CCND3 (human)): 44.5% | residual activity (PLK3 (human)): 88.1% | residual activity [1]: 76.3% | residual activity (PKN1 (human)): 10.3% | residual activity (NTRK2 (human)): 0.815% | residual activity (SLK (human)): 34.1% | residual activity (TYRO3 (human)): 85.6% | residual activity (PRKX (human)): 60.1% | residual activity (IGF1R (human)): 98.3% | residual activity (RPS6KA5 KD2 (human)): 23.7% | residual activity (HCK (human)): 96.8%

COc1ccc(Cl)cc1NC(=O)Nc1cc(C)nc2ccccc12
residual activity (CDK9 CCNT1 (human)): 98.2% | residual activity (PRKCI (human)): 99.4% | residual activity (SRPK3 (human)): 104% | residual activity (CDK1 CCNB1 (human)): 81.1% | residual activity (SIK2 (human)): 87.8% | residual activity (CDC42BPA (human)): 98.8% | residual activity (CAMK1 (human)): 91.7% | residual activity (TGFBR2 (human)): 111% | residual activity (STK33 (human)): 103% | residual activity (INSR (human)): 93.2% | residual activity (MAP3K14 (human)): 84.9% | residual activity (EPHA5 (human)): 123% | residual activity (CDK6 CCND3 (human)): 99% | residual activity (GRK5 (human)): 109% | residual activity (CSNK1G3 (human)): 95.7% | residual activity (CAMK1D (human)): 99.9% | residual activity (BRSK2 (human)): 95.2% | residual activity (CDK1 CCNA2 (human)): 104% | residual activity (MATK (human)): 98.2% | residual activity (FGFR2 (human)): 96.9% | residual activity (ADRBK1 (human)): 100% | residual activity (CSNK1G2 (human)): 98.5% | residual activity (PLK1 (human)): 96.9% | residual activity (STK17A (human)): 98.1% | residual activity (BTK (human)): 102% | residual activity (SYK (human)): 88.2% | residual activity (PAK3 (human)): 98.9% | residual activity (HIPK3 (human)): 99.1% | residual activity (TAOK1 (human)): 103% | residual activity (TBK1 (human)): 100% | residual activity (CDK4 CCND3 (human)): 98.5% | residual activity (PLK3 (human)): 100% | residual activity [1]: 96.7% | residual activity (PKN1 (human)): 104% | residual activity (NTRK2 (human)): 94.6% | residual activity (SLK (human)): 98.8% | residual activity (TYRO3 (human)): 98.9% | residual activity (PRKX (human)): 98% | residual activity (IGF1R (human)): 94.9% | residual activity (RPS6KA5 KD2 (human)): 88.4% | residual activity (HCK (human)): 101%
